Patent US7910612B2, “4-oxy-N-[1,3,4]-thiadiazol-2-yl-benzene sulfonamides, pharmaceutical compositions and methods for their therapeutic use” (Sanofi-Aventis, priority 2005, dated 2011)
pEC50: −log10 of the molar value.

Target: T1, human PPARgamma (Homo sapiens, UniProt P37231)
T1 construct: amino acids 1152-Y475; expressed in transfected cells; host or cells: HEK (human embryonic kidney) cells, transiently transfected with pcDNA3-GAL4-humanPPARgammaLBD
T1 sequence (P37231 182-477 isoform P37231-2 limits assumed): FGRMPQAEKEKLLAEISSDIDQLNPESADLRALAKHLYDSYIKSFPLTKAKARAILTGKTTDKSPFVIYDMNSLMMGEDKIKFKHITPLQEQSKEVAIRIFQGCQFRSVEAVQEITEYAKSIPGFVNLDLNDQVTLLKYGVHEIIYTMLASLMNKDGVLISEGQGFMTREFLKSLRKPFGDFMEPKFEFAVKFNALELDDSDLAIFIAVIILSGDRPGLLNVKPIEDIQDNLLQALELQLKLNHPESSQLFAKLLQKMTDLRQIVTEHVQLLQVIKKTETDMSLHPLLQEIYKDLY
Assay: cellular PPARgamma assay (transiently transfected HEK cells, luciferase reporter)
Type: cell-based
Excerpt: A transient transfection system is employed to determine the cellular PPARgamma activity of PPAR agonists. It is based on the use of a luciferase reporter plasmid (pGL3basic-5xGAL4-TK) and of a PPARgamma expression plasmid (pcDNA3-GAL4-humanPPARgammaLBD). Both plasmids are transiently transfected into human embryonic kidney cells (HEK cells). There is then expression in these cells of the fusion protein GAL4-humanPPARgammaLBD which binds to the GAL4 binding sites of the reporter plasmid. In the presence of a PPARgamma-active ligand, the activated fusion protein GAL4-humanPPARgammaLBD induces expression of the luciferase reporter gene, which can be detected in the form of a chemiluminescence signal after addition of a luciferase substrate. As a difference from the stably transfected PPARalpha reporter cell line, in the cellular PPARgamma assay the two components (luciferase reporter plasmid and PPARgamma expression plasmid) are transiently transfected into HEK cells because stable and permanent expression of the PPARgamma fusion protein is cytotoxic.
The luciferase reporter plasmid pGL3basic-5xGAL4-TK is based on the vector pGL3basic from Promega. The reporter plasmid is prepared by cloning five binding sites of the yeast transcription factor GAL4 (each binding site with the sequence 5′-CTCGGAGGACAGTACTCCG-3′), together with a 160 bp-long thymidine kinase promoter section (Genbank Accession #AF027128) 5′-upstream into pGL3basic. 3′-downstream of the thymidine kinase promoter is the complete luciferase gene from Photinus pyralis (Genbank Accession #M15077) which is already a constituent of the plasmid pGL3basic used. The cloning and sequencing of the reporter plasmid pGL3basic-5xGAL4-TK took place in analogy to the description in Sambrook J. et. al. (Molecular cloning, Cold Spring Harbor Laboratory Press, 1989).
The PPARgamma expression plasmid pcDNA3-GAL4-humanPPARgammaLBD was prepared by first cloning the cDNA coding for amino acids 1-147 of the yeast transcription factor GAL4 (Genbank Accession #P04386) into the plasmid pcDNA3 (from Invitrogen) 3′-downstream of the cytomegalovirus promoter. Subsequently, the cDNA of the ligand-binding domain (LBD) of the human PPARgamma receptor (amino acids […]; Accession #g1480099) 3′-downstream of the GAL4 DNA binding domain. Cloning and sequencing of the PPARgamma expression plasmid pcDNA3-GAL4-humanPPARgammaLBD again took place in analogy to the description in Sambrook J. et. al. (Molecular cloning, Cold Spring Harbor Laboratory Press, 1989). Besides the luciferase reporter plasmid pGL3basic-5xGAL4-TK and the PPARgamma expression plasmid pcDNA3-GAL4-humanPPARgammaLBD, also used for the cellular PPARgamma assay are the reference plasmid pRL-CMV (from Promega) and the plasmid pBluescript SK(+) from Stratagene. All four plasmids were prepared using a plasmid preparation kit from Qiagen, which ensured a plasmid quality with a minimal endotoxin content, before transfection into HEK cells.
The activity of PPARgamma agonists was then determined in a 4-day assay which is described below. Before the transfection, HEK cells are cultivated in DMEM (#41965-039, Invitrogen) which is mixed with the following additions: 10% FCS (#16000-044, Invitrogen), 1% penicillin-streptomycin solution (#15140-122, Invitrogen) and 2 mM L-glutamine (#25030-024, Invitrogen).
Firstly, solution A, a transfection mixture which contains all four plasmids previously described in addition to DMEM, is prepared. The following amounts are used to make up 3 ml of solution A for each 96 well microtiter plate for an assay: 2622 μl of antibiotic- and serum-free DMEM (#41965-039, Invitrogen), 100 μl of reference plasmid pRL-CMV (1 ng/μl), 100 μl of luciferase reporter plasmid pGL3basic-5xGAL4-TK (10 ng/μl), 100 μl of PPARgamma expression plasmid pcDNA3-GAL4-humanPPARgammaLBD (100 ng/μl) and 78 μl of plasmid pBluescript SK(+) (500 ng/μl). […]

SMILES	pEC50
Cc1nc(-c2ccc(C(F)(F)F)cc2)sc1COc1ccc(S(=O)(=O)Nc2nnc(C(C)C)s2)cc1 [Example 1, N-(5-Isopropyl-[1,3,4]thiadiazol-2-yl)-4-[4-methyl-2-(4-trifluoromethyl-phenyl)-thiazol-5-ylmethoxy]-benzenesulfonamide]	7.30
COc1ccc2c(COc3ccc(S(=O)(=O)Nc4nnc(C(C)C)s4)cc3)coc2c1 [Example 3, N-(5-Isopropyl-[1,3,4]thiadiazol-2-yl)-4-(6-methoxy-benzofuran-3-ylmethoxy)-benzenesulfonamide]	6.34
CC(C)c1nnc(NS(=O)(=O)c2ccc(OCc3ccc(Oc4ccc(C(F)(F)F)cc4)cc3)cc2)s1 [Example 4, N-(5-Isopropyl-[1,3,4]thiadiazol-2-yl)-4-[4-(4-trifluoromethyl-phenoxy)-benzyloxy]-benzenesulfonamide]	6.34
COc1ccc(-c2nc(COc3ccc(S(=O)(=O)Nc4nnc(C(C)C)s4)cc3)no2)cc1 [Example 9, N-(5-Isopropyl-[1,3,4]thiadiazol-2-yl)-4-[5-(4-methoxy-phenyl)-[1,2,4]oxadiazol-3-ylmethoxy]-benzenesulfonamide]	7.30
COc1ccc(-c2nc(COc3ccc(S(=O)(=O)Nc4nnc(C(C)C)s4)cc3)co2)cc1 [Example 13, N-(5-Isopropyl-[1,3,4]thiadiazol-2-yl)-4-[2-(4-methoxy-phenyl)-oxazol-4-ylmethoxy]-benzenesulfonamide]	5.71
CCc1oc(-c2cccc(C(F)(F)F)c2)nc1COc1ccc(S(=O)(=O)Nc2nnc(C(C)C)s2)cc1 [Example 14, 4-[5-Ethyl-2-(3-trifluoromethyl-phenyl)-oxazol-4-ylmethoxy]-N-(5-isopropyl-[1,3,4]thiadiazol-2-yl)-benzenesulfonamide]	9.00
